Patent US8969516B2, “Method of hydrolysis of peptide bond” (priority 2006, dated 2015)

Test: MALDI-TOF screening of Ni^2+ dependent hydrolysis in a combinatorial peptide library
Format: physicochemical
Settings: Ni^2+ 2 mM, pH 8.2, 10 mM Tris, score=24/tm
Text: The sequence CH3CO-Gly-Ala-Ser/Thr-X-His-Z-Lys-Phe-Leu-NH2 was designed so that the fixed R1 and R2 sequences, CH3CO-Gly-Ala, and Lys-Phe-Leu-NH2, respectively, allowed optimal detection by MALDI-TOF mass spectrometry of substrates as well as expected products, Ser/Thr-X-His-Z-Lys-Phe-Leu-NH2 and assured separation between the clusters of signals for substrates and products in sublibraries (see below).
Residues in position X included all amino acids commonly present in proteins, except for Asp, Glu, and Cys. The former two contain carboxylates in their side chains, which may bind Ni^2+ in a way which would quench or slow down the hydrolysis reaction. The Cys residue may do the same, and also may engage in side reactions with Ni^2+ ions, including redox processes (for example see Bal and Kasprzak, Toxicol. Lett. 2002, 127, 55-62). Only the Cys residue was eliminated from position Z, for the same reasons.
The synthesis of the library was accomplished on a RINK amide resin (Novabiochem) on a 800 mg scale, according to a typical Fmoc protocol (Fields, Meth. Enzymol. Vol. 289). The resin-attached Leu-Phe-Lys peptide was synthesised first and coupled with the isokinetic mixture of 19 amino acids selected for position Z, and then with the H is residue. The resin carrying the library of pentapeptides was divided into Ser and Thr halves at this stage, and each of these halves into 17 portions, which were coupled with individual amino acids selected for position X. The coupling with Ser or Thr as appropriate, additions of Ala and Gly residues, acetylation of Gly, deprotection and cleavage from the resin were accomplished subsequently. Each of the resulting 34 samples of sublibraries randomized at position X was separated into two portions, one for the reaction at 37° C. and another for the reaction at 45° C. The hydrolysis reactions were accomplished in 10 mM Tris buffers at pH 8.2. The total concentrations of peptide mixtures and Ni^2+ ions were 1 mM and 2 mM, respectively. The pH for the reaction was chosen as selective for highly reactive sequences.
The detection of reaction products was accomplished with the use of a MALDI-TOF mass spectrometer (Micromass). The aliquots were removed from reaction mixtures and measured by MS at 2, 4, 6, and 8 hours of incubation. The progress of reaction was evaluated by visual detection in mass spectra of appearance of signals corresponding to expected products of hydrolysis, Ser/Thr-X-His-Z-Lys-Phe-Leu-NH2, at given measurement times, tm. […] Also the decrease of signals of substrates was controlled in these cases.
Residues X and Z were then sorted according to various molecular parameters, describing their physical properties (Carugo, In Silico Biol. 2003, 3, 0035). […] The Ser library provided a higher number of reactive peptides than the Thr library. Following the additivity of effects, the scores were also summed up in lines and columns of Table 1A-D, thereby creating final rankings for preferred substitutions in positions X and Z.

[1] = CH3CO-Gly-Ala-Ser-X-His-Z-Lys-Phe-Leu-NH2 library, 37° C.
[2] = CH3CO-Gly-Ala-Ser-X-His-Z-Lys-Phe-Leu-NH2 library, 45° C.
[3] = CH3CO-Gly-Ala-Thr-X-His-Z-Lys-Phe-Leu-NH2 library, 37° C.
[4] = CH3CO-Gly-Ala-Thr-X-His-Z-Lys-Phe-Leu-NH2 library, 45° C.

| Substance | hydrolysis score from MALDI-TOF screening [1] | hydrolysis score from MALDI-TOF screening [2] | hydrolysis score from MALDI-TOF screening [3] | hydrolysis score from MALDI-TOF screening [4] |
| --- | --- | --- | --- | --- |
| Ac-GASKHNKFL-NH2 [SKHN] | 0 (a score of 0 if no trace of the product of hydrolysis was seen after 8 hours of incubation) | 0 (a score of 0 if no trace of the product of hydrolysis was seen after 8 hours of incubation) |  |  |
| Ac-GATKHDKFL-NH2 [TKHD] |  |  | 0 (a score of 0 if no trace of the product of hydrolysis was seen after 8 hours of incubation) | 0 (a score of 0 if no trace of the product of hydrolysis was seen after 8 hours of incubation) |
| Ac-GATGHLKFL-NH2 [TGHL] |  |  | 0 (a score of 0 if no trace of the product of hydrolysis was seen after 8 hours of incubation) | 0 (a score of 0 if no trace of the product of hydrolysis was seen after 8 hours of incubation) |
| Ac-GASNHHKFL-NH2 [SNHH] | 0 (a score of 0 if no trace of the product of hydrolysis was seen after 8 hours of incubation) | 3 (a score of 3 for detection at 8 hours) |  |  |
| Ac-GASNHMKFL-NH2 [SNHM] | 0 (a score of 0 if no trace of the product of hydrolysis was seen after 8 hours of incubation) | 0 (a score of 0 if no trace of the product of hydrolysis was seen after 8 hours of incubation) |  |  |
| Ac-GATLHRKFL-NH2 [TLHR] |  |  | 0 (a score of 0 if no trace of the product of hydrolysis was seen after 8 hours of incubation) | 3 (a score of 3 for detection at 8 hours) |
| Ac-GATRHVKFL-NH2 [TRHV] |  |  | 3 (a score of 3 for detection at 8 hours) | 4 (a score of 4 for detection at 6 hours) |
| Ac-GATGHRKFL-NH2 [TGHR] |  |  | 0 (a score of 0 if no trace of the product of hydrolysis was seen after 8 hours of incubation) | 0 (a score of 0 if no trace of the product of hydrolysis was seen after 8 hours of incubation) |
| Ac-GASAHTKFL-NH2 [SAHT] | 0 (a score of 0 if no trace of the product of hydrolysis was seen after 8 hours of incubation) | 0 (a score of 0 if no trace of the product of hydrolysis was seen after 8 hours of incubation) |  |  |
| Ac-GATHHMKFL-NH2 [THHM] |  |  | 0 (a score of 0 if no trace of the product of hydrolysis was seen after 8 hours of incubation) | 4 (a score of 4 for detection at 6 hours) |
| Ac-GASQHRKFL-NH2 [SQHR] | 6 (a score of 6 for detection at 4 hours) | 6 (a score of 6 for detection at 4 hours) |  |  |
| Ac-GASLHSKFL-NH2 [SLHS] | 0 (a score of 0 if no trace of the product of hydrolysis was seen after 8 hours of incubation) | 0 (a score of 0 if no trace of the product of hydrolysis was seen after 8 hours of incubation) |  |  |
| Ac-GASSHAKFL-NH2 [SSHA] | 0 (a score of 0 if no trace of the product of hydrolysis was seen after 8 hours of incubation) | 3 (a score of 3 for detection at 8 hours) |  |  |
| Ac-GATVHDKFL-NH2 [TVHD] |  |  | 0 (a score of 0 if no trace of the product of hydrolysis was seen after 8 hours of incubation) | 0 (a score of 0 if no trace of the product of hydrolysis was seen after 8 hours of incubation) |
| Ac-GATKHIKFL-NH2 [TKHI] |  |  | 4 (a score of 4 for detection at 6 hours) | 12 (a score of 12, if it was seen to be partially hydrolysed at 2 hours) |
| Ac-GASRHRKFL-NH2 [SRHR] | 4 (a score of 4 for detection at 6 hours) | 12 (a score of 12, if it was seen to be partially hydrolysed at 2 hours) |  |  |

| Substance | hydrolysis score from MALDI-TOF screening [1] | hydrolysis score from MALDI-TOF screening [2] | hydrolysis score from MALDI-TOF screening [3] | hydrolysis score from MALDI-TOF screening [4] |
| --- | --- | --- | --- | --- |
| Ac-GASYHEKFL-NH2 [SYHE] | 0 (a score of 0 if no trace of the product of hydrolysis was seen after 8 hours of incubation) | 0 (a score of 0 if no trace of the product of hydrolysis was seen after 8 hours of incubation) |  |  |
| Ac-GASSHGKFL-NH2 [SSHG] | 0 (a score of 0 if no trace of the product of hydrolysis was seen after 8 hours of incubation) | 3 (a score of 3 for detection at 8 hours) |  |  |
| Ac-GATGHHKFL-NH2 [TGHH] |  |  | 0 (a score of 0 if no trace of the product of hydrolysis was seen after 8 hours of incubation) | 0 (a score of 0 if no trace of the product of hydrolysis was seen after 8 hours of incubation) |
| Ac-GASNHKKFL-NH2 [SNHK] | 4 (a score of 4 for detection at 6 hours) | 4 (a score of 4 for detection at 6 hours) |  |  |
| Ac-GATMHKKFL-NH2 [TMHK] |  |  | 0 (a score of 0 if no trace of the product of hydrolysis was seen after 8 hours of incubation) | 3 (a score of 3 for detection at 8 hours) |
| Ac-GASQHYKFL-NH2 [SQHY] | 3 (a score of 3 for detection at 8 hours) | 4 (a score of 4 for detection at 6 hours) |  |  |
| Ac-GATWHNKFL-NH2 [TWHN] |  |  | 0 (a score of 0 if no trace of the product of hydrolysis was seen after 8 hours of incubation) | 0 (a score of 0 if no trace of the product of hydrolysis was seen after 8 hours of incubation) |
| Ac-GASFHQKFL-NH2 [SFHQ] | 0 (a score of 0 if no trace of the product of hydrolysis was seen after 8 hours of incubation) | 0 (a score of 0 if no trace of the product of hydrolysis was seen after 8 hours of incubation) |  |  |
| Ac-GASHHQKFL-NH2 [SHHQ] | 0 (a score of 0 if no trace of the product of hydrolysis was seen after 8 hours of incubation) | 0 (a score of 0 if no trace of the product of hydrolysis was seen after 8 hours of incubation) |  |  |
| Ac-GATNHQKFL-NH2 [TNHQ] |  |  | 0 (a score of 0 if no trace of the product of hydrolysis was seen after 8 hours of incubation) | 0 (a score of 0 if no trace of the product of hydrolysis was seen after 8 hours of incubation) |
| Ac-GATGHPKFL-NH2 [TGHP] |  |  | 0 (a score of 0 if no trace of the product of hydrolysis was seen after 8 hours of incubation) | 0 (a score of 0 if no trace of the product of hydrolysis was seen after 8 hours of incubation) |
| Ac-GATAHHKFL-NH2 [TAHH] |  |  | 0 (a score of 0 if no trace of the product of hydrolysis was seen after 8 hours of incubation) | 0 (a score of 0 if no trace of the product of hydrolysis was seen after 8 hours of incubation) |
| Ac-GATGHAKFL-NH2 [TGHA] |  |  | 0 (a score of 0 if no trace of the product of hydrolysis was seen after 8 hours of incubation) | 0 (a score of 0 if no trace of the product of hydrolysis was seen after 8 hours of incubation) |
| Ac-GASYHKKFL-NH2 [SYHK] | 4 (a score of 4 for detection at 6 hours) | 6 (a score of 6 for detection at 4 hours) |  |  |
| Ac-GASKHVKFL-NH2 [SKHV] | 4 (a score of 4 for detection at 6 hours) | 6 (a score of 6 for detection at 4 hours) |  |  |
| Ac-GASWHKKFL-NH2 [SWHK] | 4 (a score of 4 for detection at 6 hours) | 12 (a score of 12, if it was seen to be partially hydrolysed at 2 hours) |  |  |
